Laboratory results as given in patent US20040176474A1 (priority 2003, published 2004).

How the values were obtained:
[1] = UN Test Series 3 overall conclusion; assay type: physicochemical; conditions: sensitivity for transportation
Source text: UN Test Series 3: Drop Impact
Conclusion of UN Tests Series 3 Results:

[2] = Adiabatic compression test; assay type: physicochemical
Description: Adiabatic Compression Test
This test determines the initiation sensitivity of the material to sudden gas compression, such as liquid inertia compressing entrained gas bubbles during transportation or hydrostatic pressure heads which form when pumping liquid or opening and closing valves. The test is performed with a plunger to rapidly compress gas from a drop height of at least 100 cm within a cylindrical chamber containing the sample. Energy is delivered to the plunger with a drop weight. A failed test is one in which any smoke, discoloration, char, spark or audible report result from the test. Neat propargyl bromide and the single solvent formulation pass the test at drop height of 150 cm in nitrogen and fail the test in air at drop heights of 100 cm and 150 cm.

C#CCBr [neat propargyl bromide, 3-bromopropyne]
UN Test Series 3 conclusion [1]: too sensitive to mechanical impact to allow transportation
Adiabatic compression test result (pass/fail) ([2]; drop height of 150 cm in nitrogen): pass
Adiabatic compression test result (pass/fail) ([2]; in air at drop heights of 100 cm and 150 cm): fail
